Source: patent publication US11821895B2, “Functional cortical organoids, methods of making, and uses thereof” (priority 2017, dated 2023)

Test system: cortical organoids
Assay: Pharmacological perturbation of network activity in cortical organoids, multi-electrode array (MEA) recordings
Assay type: cell-based, human

Compound | network bursts (synchrony) | number of bursts / burst activity | synchronous activity / synchrony indexes | number of network events | neuronal electrical activity
NCc1cc(=O)[nH]o1 [muscimol] | reversibly extinguish the network bursts (synchrony) | significantly reducing the number of bursts | extinction of synchronous activity | – | –
NCC(CC(=O)O)c1ccc(Cl)cc1 (stereo not drawn) [baclofen] | reversibly extinguish the network bursts (synchrony) | significantly reducing the number of bursts | extinction of synchronous activity | completely abolishes synchronized network events | –
NC1=N[C@H](O)[C@H]2[C@H]3O[C@]4(O)O[C@@H]([C@@H](O)[C@@]2(N1)[C@@H]4O)[C@]3(O)CO [TTX, tetrodotoxin] | – | – | – | – | blocked
N#Cc1cc2[nH]c(=O)c(=O)[nH]c2cc1[N+](=O)[O-] [CNQX] | – | significantly reducing the number of bursts | extinction of synchronous activity | – | –
NC(CCCP(=O)(O)O)C(=O)O (stereo not drawn) [AP5] | – | significantly reducing the number of bursts | extinction of synchronous activity | – | –
